Here are results for seven compounds from patent publication US7045624B2, “Compounds and their uses” (Conopco, Inc., priority 2002, dated 2006).

Each structure is given as a SMILES string.

Assay [1] in a line: Cooling effect of synthesised compounds (test not described). The note with it: ability to elicit a cooling sensation; no test details given.
For assay [2], the system named is Neurons from trigeminal ganglia of Wistar rats. Put plainly: Ca2+ response of cultured trigeminal neurons to test compounds (Fura-2 fluorescence). The note with it: 100 μM final test concentration; cellular Ca2+ levels, cultured rat trigeminal neurons; relative to compound 1 (icilin). Type of assay: cell-based. How it is done: The efficacy of different compounds according to the invention was tested in vitro, by exposing cultured neurons to the compounds and monitoring the cellular Ca^2+ levels.
The compounds were dissolved in DMSO by ultrasonication to a 0.1 M solution. 5 μl of this stock was added to 5 mg of cyclodextrin and 5 ml of 140 Na-tyrode, to achieve a 100 μM final test concentration.
Neurons from trigeminal ganglia of Wistar rats were prepared as described in U.S. Pat. No. 5,811,256. After 24 hours of cultivation, the responsiveness of the neurons to different compounds was measured according to the general procedure described by McKemy et al (Nature, Vol. 416, 2002, 52–58). The test protocol described by McKemy was modified slightly, by using the fluorescent Ca^2+ indicator Fura-2. Detection of the cellular fluorescence signals was performed by videomicroscopical analysis. The neurons were given a cold stimulus by a thermocoupling device and were subsequently tested for responsiveness to the test compounds by superfusion with solutions containing the test compounds while continuously monitoring the cellular Ca^2+ levels.
The results were recorded for compounds 1 to 3 and menthol, and are expressed below, as a percentage compared to the activity for compound 1 (icilin).

Assay [3] has as its system mucous membranes (nostrils, lips and eyelids) of the researchers. The note with it: in contact with mucous membranes (nostrils, lips and eyelids), also when ingested; cited from earlier work.

As to `COc1cccc(C2=CCN(c3ccccc3O)C(=O)N2)c1` [1-(2′-hydroxyphenyl)-4-(3″-methoxyphenyl)-1,2,3,6-tetrahydropyrimidine-2-one], in assay [1], the cooling effect entry is reported as “good cooling effects”.

Turning to `O=C1NC(c2ccccc2)=CCN1c1ccccc1O` [1-(2′-hydroxyphenyl)-4-phenyl-1,2,3,6-tetrahydropyrimidine-2-one], the cooling effect result in assay [1] is on record as “good cooling effects”. On the same count and under the same terms, under `O=C1NC(c2cccc([N+](=O)[O-])c2)=CCN1c1ccccc1C(F)(F)F` [1-(2′-trifluoromethylphenyl)-4-(3″-nitrophenyl)-1,2,3,6-tetrahydropyrimidine-2-one] stands “good cooling effects”; under `O=C1NC(c2cccc([N+](=O)[O-])c2)=CCN1c1ccccc1` [1-phenyl-4-(3″-nitrophenyl)-1,2,3,6-tetrahydropyrimidine-2-one], “good cooling effects”. For `O=C1NC(c2ccccc2[N+](=O)[O-])=CCN1c1ccccc1O` [Compound 1, 1-[2-hydroxyphenyl]-4-[2-nitrophenyl]-1,2,3,6-tetrahydropyrimidine-2-one], the “Activity (% relative to Compound 1)” value in assay [2] was 100%. Also, in assay [3], the sensations of coldness result is on record as “produced sensations of coldness”. As for `O=C1NC(c2cccc(Cl)c2)=CCN1c1ccccc1O` [Compound 3, 1-(2′-hydroxyphenyl)-4-(3″-chlorophenyl)-1,2,3,6-tetrahydro-pyrimidine-2-one], the “Activity (% relative to Compound 1)” value in assay [2] worked out at 35%. `CC1CCC(C(C)C)C(O)C1` (centres unmarked) [Menthol, 2-isopropyl-5-methyl-cyclohexanol]: the “Activity (% relative to Compound 1)” value in assay [2] was 42%.
